# Measurements from US10406207B2, “Peptide conjugates of GLP-1 receptor agonists and gastrin and their use” (priority 2010, dated 2019).
# pEC50: −log10 of the molar value. Where two headings read alike, the source gives them in different places. Square brackets hold non-standard residues; d marks the D form. Peptide text beside a SMILES is read from it. AEEA = NCCOCCOCC(=O)O
# Target: T1, human CCK-B R (Homo sapiens, UniProt P32239)
# T1 construct: expressed in transfected cells
# T1 sequence (P32239 1-447): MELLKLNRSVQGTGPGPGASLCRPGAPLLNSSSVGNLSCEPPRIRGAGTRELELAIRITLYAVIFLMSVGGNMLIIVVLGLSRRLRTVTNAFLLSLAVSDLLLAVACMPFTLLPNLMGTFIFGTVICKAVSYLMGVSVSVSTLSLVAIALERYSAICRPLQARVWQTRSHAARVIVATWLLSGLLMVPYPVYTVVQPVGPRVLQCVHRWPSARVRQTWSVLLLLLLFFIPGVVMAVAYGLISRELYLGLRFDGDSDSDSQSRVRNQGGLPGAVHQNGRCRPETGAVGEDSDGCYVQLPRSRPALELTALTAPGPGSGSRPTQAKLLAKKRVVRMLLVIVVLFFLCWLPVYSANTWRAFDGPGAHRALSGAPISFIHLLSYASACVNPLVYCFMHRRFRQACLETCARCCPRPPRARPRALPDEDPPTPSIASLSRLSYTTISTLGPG
# Assay: Human CCK-B receptor efficacy assay (AlphaScreen SureFire p-ERK)
# Assay type: cell-based
# Conditions: read-out: hCCK-B R EC50
pEC50 (Table 3),pEC50 (Table 2),SMILES
7.54,–,"CCCCCCCCCCCCCCCC(=O)N[C@@H](CCC(=O)NCCCC[C@H](NC(=O)[C@H](C)NC(=O)[C@H](C)NC(=O)[C@H](CCC(N)=O)NC(=O)CNC(=O)[C@H](CCC(=O)O)NC(=O)[C@H](CC(C)C)NC(=O)[C@H](Cc1ccc(O)cc1)NC(=O)[C@H](CO)NC(=O)[C@H](CO)NC(=O)[C@@H](NC(=O)[C@H](CC(=O)O)NC(=O)[C@H](CO)NC(=O)[C@@H](NC(=O)[C@H](Cc1ccccc1)NC(=O)[C@@H](NC(=O)CNC(=O)[C@H](CCC(=O)O)NC(=O)[C@H](C)NC(=O)[C@@H](N)Cc1c[nH]cn1)[C@@H](C)O)[C@@H](C)O)C(C)C)C(=O)N[C@@H](CCC(=O)O)C(=O)N[C@@H](Cc1ccccc1)C(=O)N[C@H](C(=O)N[C@@H](C)C(=O)N[C@@H](Cc1c[nH]c2ccccc12)C(=O)N[C@@H](CC(C)C)C(=O)N[C@H](C(=O)N[C@@H](CCCNC(=N)N)C(=O)NCC(=O)N[C@@H](CCCNC(=N)N)C(=O)NCC(=O)NCCOCCOCC(=O)NCCOCCOCC(=O)N[C@@H](Cc1ccc(O)cc1)C(=O)NCC(=O)N[C@@H](Cc1c[nH]c2ccccc12)C(=O)N[C@@H](CC(C)C)C(=O)N[C@@H](CC(=O)O)C(=O)N[C@@H](Cc1ccccc1)C(N)=O)C(C)C)[C@@H](C)CC)C(=O)O [Compound 107, [Arg34,Lys(Hexadecanoyl-isoGlu)26]GLP-1(7-37)-Peg3-Peg3-[Leu4]Gastrin6]"
7.74,–,"CCCCCCCCCCCCCCCC(=O)N[C@@H](CCC(=O)NCCCC[C@H](NC(=O)[C@@H](NC(=O)[C@H](CC(C)C)NC(=O)[C@H](Cc1c[nH]c2ccccc12)NC(=O)[C@H](C)NC(=O)[C@@H](NC(=O)[C@H](Cc1ccccc1)NC(=O)[C@H](CCC(=O)O)NC(=O)[C@H](CCCCN)NC(=O)[C@H](C)NC(=O)[C@H](C)NC(=O)[C@H](CCC(N)=O)NC(=O)CNC(=O)[C@H](CCC(=O)O)NC(=O)[C@H](CC(C)C)NC(=O)[C@H](Cc1ccc(O)cc1)NC(=O)[C@H](CO)NC(=O)[C@H](CO)NC(=O)[C@@H](NC(=O)[C@H](CC(=O)O)NC(=O)[C@H](CO)NC(=O)[C@@H](NC(=O)[C@H](Cc1ccccc1)NC(=O)[C@@H](NC(=O)CNC(=O)[C@H](CCC(=O)O)NC(=O)[C@H](C)NC(=O)[C@@H](N)Cc1c[nH]cn1)[C@@H](C)O)[C@@H](C)O)C(C)C)[C@@H](C)CC)C(C)C)C(=O)NCC(=O)N[C@@H](CCCNC(=N)N)C(=O)NCC(=O)NCCOCCOCC(=O)NCCOCCOCC(=O)N[C@@H](Cc1ccc(O)cc1)C(=O)NCC(=O)N[C@@H](Cc1c[nH]c2ccccc12)C(=O)N[C@@H](CC(C)C)C(=O)N[C@@H](CC(=O)O)C(=O)N[C@@H](Cc1ccccc1)C(N)=O)C(=O)O [Compound 106, [Lys(Hexadecanoyl-isoGlu)34]GLP-1(7-37)-Peg3-Peg3-[Leu4]Gastrin6]"
–,5.92,"CC[C@H](C)[C@H](NC(=O)[C@H](Cc1ccccc1)NC(=O)[C@H](CC(C)C)NC(=O)[C@H](CCCNC(=N)N)NC(=O)[C@@H](NC(=O)[C@H](C)NC(=O)[C@H](CCC(=O)O)NC(=O)[C@H](CCC(=O)O)NC(=O)[C@H](CCC(=O)O)NC(=O)[C@H](CC(C)C)NC(=O)[C@H](Cc1ccc(O)cc1)NC(=O)[C@H](CCCCN)NC(=O)[C@H](CO)NC(=O)[C@H](CC(C)C)NC(=O)[C@H](CC(=O)O)NC(=O)[C@H](CO)NC(=O)[C@@H](NC(=O)[C@H](Cc1ccccc1)NC(=O)[C@@H](NC(=O)CNC(=O)[C@H](CCC(=O)O)NC(=O)CNC(=O)[C@@H](N)Cc1c[nH]cn1)[C@@H](C)O)[C@@H](C)O)C(C)C)C(=O)N[C@@H](CCC(=O)O)C(=O)N[C@@H](Cc1ccccc1)C(=O)N[C@@H](CC(C)C)C(=O)N[C@@H](CCCCN)C(=O)NCCOCCOCC(=O)NCCOCCOCC(=O)N[C@@H](Cc1ccc(O)cc1)C(=O)NCC(=O)N[C@@H](Cc1ccccc1)C(=O)N[C@@H](CC(C)C)C(=O)N[C@@H](CC(=O)O)C(=O)N[C@@H](Cc1ccccc1)C(N)=O [Compound 89, [Leu14, Phe25,Tyr13]Exendin-4(1-27)-Peg3-Peg3-[Leu4, Phe3]Gastrin6] (H-HGEGTFTSDLSKYLEEEAVRLFIEFLK[AEEA][AEEA]YGFLDF-NH2)"
7.62,–,"CC[C@H](C)[C@H](NC(=O)[C@H](Cc1ccccc1)NC(=O)[C@H](CCC(=O)O)NC(=O)[C@H](CCCCN)NC(=O)[C@H](C)NC(=O)[C@H](C)NC(=O)[C@H](CCC(N)=O)NC(=O)CNC(=O)[C@H](CCC(=O)O)NC(=O)[C@H](CC(C)C)NC(=O)[C@H](Cc1ccc(O)cc1)NC(=O)[C@H](CO)NC(=O)[C@H](CO)NC(=O)[C@@H](NC(=O)[C@H](CC(=O)O)NC(=O)[C@H](CO)NC(=O)[C@@H](NC(=O)[C@H](Cc1ccccc1)NC(=O)[C@@H](NC(=O)CNC(=O)[C@H](CCC(=O)O)NC(=O)[C@H](C)NC(=O)[C@@H](N)Cc1c[nH]cn1)[C@@H](C)O)[C@@H](C)O)C(C)C)C(=O)N[C@@H](C)C(=O)N[C@@H](Cc1c[nH]c2ccccc12)C(=O)N[C@@H](CC(C)C)C(=O)N[C@H](C(=O)N[C@@H](CCCNC(=N)N)C(=O)NCC(=O)N[C@@H](CCCNC(=N)N)C(=O)NCC(=O)NCCOCCOCC(=O)NCCOCCOCC(=O)N[C@@H](Cc1ccc(O)cc1)C(=O)NCC(=O)N[C@@H](Cc1c[nH]c2ccccc12)C(=O)N[C@@H](CC(C)C)C(=O)N[C@@H](CC(=O)O)C(=O)N[C@@H](Cc1ccccc1)C(N)=O)C(C)C [Compound 113, [Arg34]GLP-1(7-37)-Peg3-Peg3-[Leu4]Gastrin6]"
7.59,–,"CCCCCCCCCCCCCCCC(=O)N[C@@H](CCC(=O)NCCCC[C@H](NC(=O)[C@H](C)NC(=O)[C@H](C)NC(=O)[C@H](CCC(N)=O)NC(=O)CNC(=O)[C@H](CCC(=O)O)NC(=O)[C@H](CC(C)C)NC(=O)[C@H](Cc1ccc(O)cc1)NC(=O)[C@H](CO)NC(=O)[C@H](CO)NC(=O)[C@@H](NC(=O)[C@H](CC(=O)O)NC(=O)[C@H](CO)NC(=O)[C@@H](NC(=O)[C@H](Cc1ccccc1)NC(=O)[C@@H](NC(=O)CNC(=O)[C@H](CCC(=O)O)NC(=O)[C@H](C)NC(=O)[C@@H](N)Cc1c[nH]cn1)[C@@H](C)O)[C@@H](C)O)C(C)C)C(=O)N[C@@H](CCC(=O)O)C(=O)N[C@@H](Cc1ccccc1)C(=O)N[C@H](C(=O)N[C@@H](C)C(=O)N[C@@H](Cc1c[nH]c2ccccc12)C(=O)N[C@@H](CC(C)C)C(=O)N[C@H](C(=O)N[C@@H](CCCCN)C(=O)NCC(=O)N[C@@H](CCCNC(=N)N)C(=O)NCC(=O)NCCOCCOCC(=O)NCCOCCOCC(=O)N[C@@H](Cc1ccc(O)cc1)C(=O)NCC(=O)N[C@@H](Cc1c[nH]c2ccccc12)C(=O)N[C@@H](CC(C)C)C(=O)N[C@@H](CC(=O)O)C(=O)N[C@@H](Cc1ccccc1)C(N)=O)C(C)C)[C@@H](C)CC)C(=O)O [Compound 109, [Lys(Hexadecanoyl-isoGlu)26]GLP-1(7-37)-Peg3-Peg3-[Leu4]Gastrin6]"
